# Results: patent publication US12280046B2, “Melanocortin subtype-2 receptor (MC2R) antagonist for the treatment of disease” (Crinetics Pharmaceuticals, Inc., priority 2021, dated 2025)
# Tests used:
# [1] = test system: calcium channel L-type (phenylalkylamine); test: SafetyScreen panel: calcium channel L-type; format: binding; settings: 10 μM
# Method: Compound 1 was tested at Eurofins Panlabs Discovery Services Taiwan, Ltd. for evaluation in their SafetyScreen™ panel of assays. This included selectivity assays at 87 targets including G-protein coupled receptors, nuclear receptors, other cell surface receptors, ion channels, enzymes, and transporters.
# [2] = test system: ACTH-stimulated corticosterone; test: Single oral dose with repeated ACTH(1-24) challenges in rats; format: in vivo, rat; settings: for suppression of ACTH-stimulated corticosterone: vs vehicle
# Method: The ability of a single dose of Compound 1 to suppress corticosterone after repeated ACTH(1-24) (1 μg/kg) challenges was evaluated to determine the reproducibility of the ACTH-stimulated corticosterone response and the amount of time required to restore the corticosterone response to vehicle levels.
# Compound 1 suppressed ACTH-stimulated corticosterone at 1 hour (44% and 88% with 3 and 30 mg/kg, respectively) and 4 hours (36% and 84% with 3 and 30 mg/kg, respectively) post-oral administration compared to vehicle treatment.
# [3] = test system: plasma corticosterone in mice with ACTH-secreting AtT-20 cell tumors; test: ACTH-secreting AtT-20 mouse pituitary cell tumor model, 14 days of daily oral dosing; format: in vivo; settings: for suppression of plasma corticosterone: 2 hours after last dose, vs vehicle
# Method: The ability of 14 days of daily oral administration of Compound 1 to suppress corticosterone in a mouse model of ACTH excess was evaluated.
# Briefly, female Balb/c nude mice were subcutaneously implanted with AtT-20 corticotroph tumor cells in the rear flank (3 million cells/injection/animal) on Day 0. The no-tumor (NT) control group was injected with media only. When tumors became palpable on Day 21, mice were assigned to groups randomized for body weight, and 0, 15, 30 or 100 mg/kg/day of Compound 1. Compound 1 was orally administered for 14 days (Day 21 to Day 34).
# [4] = Phase 1 SAD study, pharmacokinetics in healthy volunteers; format: in vivo, human
# Excerpt: (§1) This Phase 1, first-in-human, double-blind, randomized, placebo-controlled study will evaluate the safety of Compound 1 in healthy volunteers as well as the relationship between exposure and pharmacodynamic (PD) parameters, including ACTH-stimulated and endogenous cortisol secretion measured in blood, saliva, and urine. Results will be used to inform endpoints and other parameters in future later studies in patients with Cushing's disease (CD) or other diseases of excess adrenocorticotropic hormone (ACTH), including Congenital Adrenal Hyperplasia (CAH) and Ectopic ACTH Syndrome (EAS).
# (§2) SAD/Part 1: ascending single dose, randomized, placebo-controlled, double-blind; 5 planned and up to 8 total cohorts, n=64. In each cohort, 6 subjects will receive Compound 1, 2 subjects will receive the placebo. Doses will escalate from 10 mg in cohort 1 to no more than 250 mg.
# Data shown are mean±SEM. All doses n=6. Cohort 4 (n=6, 80 mg) was evaluated in the high dose ACTH-stimulation test, while cohort 5 (n=6, 80 mg) was evaluated in the low dose ACTH-stimulation test.
# [5] = test system: basal and ACTH-stimulated cortisol; test: Phase 1 SAD study, basal cortisol and ACTH-stimulation test; format: in vivo, human; settings: for % suppression in cortisol AUC: high dose ACTH (250 mcg) challenge
# Excerpt: as §1, §2
# ACTH-stimulation tests are conducted while fasting. For PD analyses, blood samples are collected for measurement of serum cortisol, A4, 17-OHP, aldosterone, and DHEA. A summary of the procedure is as follows: In the “high dose” test, each subject is administered an IV 250 μg dose (for subjects >37 lbs) of cosyntropin (ACTH(1-24)) at the start of each test; in the “low dose” test, 1 mcg is administered instead. At 2 hours after study drug dosing/Time 0 (±5 minutes), collect blood sample. Within 5 minutes, administer cosyntropin IV infusion over 2 minutes. Collect blood sample at Time 30 minutes (5 minutes). Collect blood sample at Time 60 minutes (5 minutes).
# Starting on Day −1 until EOS (or ET), fasting pre-dose blood samples are collected <15 minutes prior to dosing (˜0800 hr) for measurement of serum cortisol, A4, 17-OHP, aldosterone, ACTH(1 39), renin, and DHEAS. On Days in which ACTH-stimulation tests are conducted, these tests are done approximately 2 hours post-study drug dosing. Prior to cosyntropin administration, at 2 hours (15 minutes) post-dose, blood samples are collected for measurement of cortisol, A4, 17-OHP, aldosterone, and DHEA. Cosyntropin is then administered to define time 0 of the ACTH-stimulation test. At 2.5 hours (15 minutes) post-dose/30 minutes post-cosyntropin, blood samples are collected for measurement of cortisol. At 3 hours (15 minutes) post-dose/60 minutes post-cosyntropin, blood samples are collected for measurement of cortisol, A4, 17-OHP, aldosterone, and DHEA.
# Compound 1 was also evaluated in the context of an ACTH-Stimulation Test, with oral Compound 1 or placebo being administered prior to the intravenous (IV) administration of cosyntropin (ACTH(1-24)). In the absence of pharmacologic intervention, IV administration of ACTH leads to the secretion of cortisol; whereas the pharmacologic intervention can suppress secretion of […] cortisol levels.
# [6] = daily oral dosing over the course of the experiment
structure (smiles),measurement,setting,value
"CCOc1ccccc1-c1ccc(N2CCN(C(=O)C3(C(F)(F)F)CCC3)C[C@H]2CC)c(C(=O)N[C@@H]2CN3CCC2CC3)n1 [Compound 1, 6-(2-ethoxyphenyl)-3-((R)-2-ethyl-4-(1-(trifluoromethyl)cyclobutane-1-carbonyl)piperazin-1-yl)-N—((S)-quinuclidin-3-yl)picolinamide]",inhibition/activity,[1],> 70%
same,ACTH-stimulated corticosterone,[2]; 24 and 48 hours after single oral 3 or 30 mg/kg,"returned to normal, vehicle levels"
same,suppression of ACTH-stimulated corticosterone,"[2]; 1 hour post-oral administration, 3 mg/kg",44%
same,suppression of ACTH-stimulated corticosterone,"[2]; 1 hour post-oral administration, 30 mg/kg",88%
same,suppression of ACTH-stimulated corticosterone,"[2]; 4 hours post-oral administration, 3 mg/kg",36%
same,suppression of ACTH-stimulated corticosterone,"[2]; 4 hours post-oral administration, 30 mg/kg",84%
same,suppression of plasma corticosterone,[3]; 15 mg/kg/day,73%
same,suppression of plasma corticosterone,[3]; 30 mg/kg/day,88%
same,increase in ACTH levels,[3]; 100 mg/kg/day vs vehicle,2.4 fold
same,suppression of plasma corticosterone,[3]; 100 mg/kg/day,92%
same,body weight,[3]; [6],no significant effect
same,tumor volume,[3]; [6],no significant effect
same,Tmax,"[4]; human, in vivo, single oral dose, at efficacious doses",~1 h
same,half-life,"[4]; human, in vivo, single oral dose, healthy volunteers",~1440 min
same,oral bioavailability / exposure,[4]; single ascending oral doses,oral bioavailability with dose-proportional exposure
same,% suppression in cortisol AUC,[5]; 10 mg,about 9%
same,% suppression in cortisol AUC,[5]; 20 mg,about 22%
same,% suppression in cortisol AUC,[5]; 40 mg,about 36%
same,acute reduction of basal cortisol,"[5]; 80 mg, 2 hours after administration",56%
same,% suppression in cortisol AUC,[5]; 80 mg,about 41%
same,reduction in cortisol levels,"[5]; 80 mg, low dose ACTH (1 mcg) stimulation challenge",48%
